{"source": "patent US20030032183A1", "about": "“Stem cell differentiation” (priority 2001, published 2003)", "key": {"embryoid bodies": {"test_system": "embryoid bodies", "assay": "Immunoperoxidase cytochemistry for insulin in suspended embryoid bodies", "format": "cell-based", "conditions": "retinoic acid days 3 to 7; suspension culture; day 32; versus control lacking primary antibody; FIG. 4", "method": "Embryonic stem cell lines were cultured as described above for Examples 1-10 on gelatin coated Tissue Culture (TC) dishes without Mouse Embryonic Fibroblasts (MEF's) (with 1500 units/ml Lymphocyte Inhibitory Factor (LIF) in media) to remove MEF's from culture. The resulting stem cells were then differentiated as described above (with retinoic acid during treatment during days 3 to 7) except that the formed embryoid bodies were maintained in suspension for the duration of the experiment as opposed to being separated and adhered to TC dishes. All culturing from day 1 forward was performed in 25 millimolar (mM) glucose (high glucose) until after day 19, when it was changed to 5.5 millimolar glucose (physiological glucose)."}, "embryonic stem cells": {"test_system": "embryonic stem cells", "assay": "RT-PCR analysis of insulin (INS) and amylase (AML) transcripts in embryonic stem cells differentiated with retinoic acid", "format": "cell-based", "set-up": "key to Abundance of Insulin RT-PCR Product (INS) / Abundance of Amylase RT-PCR Product (AML): +: Indicates relative abundance; −: No RT-PCR band observed", "method": "Embryonic stem cell lines were cultured and spilt 1:8 every three days for 4 passages on gelatin coated Tissue Culture (TC) dishes without Mouse Embryonic Fibroblasts (MEF's) (with 1500 units/ml Lymphocyte Inhibitory Factor (LIF) in media) to remove MEF's from culture. The resulting stem cells were then differentiated as follows:\nOn day 1, the stem cells were treated with trypsin to break up some aggregation and then suspended in 1% Fetal Calf Serum (FCS) Media (without LIF). The stem cells were then allowed to self-aggregate into embryoid bodies in suspension culture in bacterial petri dishes. On day 3, the cells were given a fresh media change and then split among two bacterial petri dishes (sample and control). A solution containing 1 μM retinoic acid was intermixed with the sample and both the control (no retinoic acid) and the sample were allowed to sit at 37° C. Fresh media were supplied at day 5 (with fresh 1 μM retinoic acid for the treated sample). At day 7, fresh media was supplied for both, with no retinoic acid (retinoic acid only present from days 3 to 7).\nFresh media was supplied again on day 9. On […] the cells were again trypsinized and then placed into TC dishes with 10% FCS media (no LIF). Small aliquots were taken at various times (days 14, 17, 19, 22, and 25) from the cultures and were saved for later analysis by reverse transcriptase polymerase chain reaction (RT-PCR).\nOn day 14, the media was changed for the two groups of cells (10% FCS) in each population (control and sample). On day 17, the media was changed again.\nOn day 19, adherent cells were gently blown off by pipetting, then trypsinized and resuspended in 10% FCS in bacterial petri dish suspension cultures. On days 22 and 25, the remaining cells were collected and a portion retained for RT-PCR analysis.\nAll culturing from day 1 forward was performed in 25 millimolar (mM) glucose (high glucose) until after day 19, when it was changed to 5.5 millimolar glucose (lower glucose) The glucose concentrations ranged from 30 mM to 10 mM on the high end and 0.5 mM-5 mM on the low end.\nTotal RNA from each aliquot collected above was purified as instructed with a Qiagen RNeasy® Mini purification kit (obtained commercially from Qiagen Inc.). The presence of specific RNA transcripts (i.e. insulin) was determined by RT-PCR using gene specific oligonucleotide primers as instructed with a Qiagen® OneStep RT-PCR kit (obtained commercially from Qiagen Inc.). Total RNA was prepared from cultures of differentiating ES cells. RT-PCR analyses were performed with appropriate oligonucleotide primers (INS-insulin) or the pancreatic specific product amylase (AML)."}, "[1]": {"conditions": "Ex. 10, lane 5, 1 μM retinoic acid days 3 to 7, day 25, glucose 5.5 mM"}}, "data": [{"smiles": "CC1=C(/C=C/C(C)=C/C=C/C(C)=C/C(=O)O)C(C)(C)CCC1", "note": "[retinoic acid]", "values": [{"measurement": "Insulin protein in embryoid bodies by specific antibody staining", "setting": "embryoid bodies", "value": "produce insulin"}, {"measurement": "Abundance of Insulin RT-PCR Product (INS)", "setting": "embryonic stem cells; Ex. 9, lane 4, 1 μM retinoic acid days 3 to 7, day 22, glucose 5.5 mM", "value": "+"}, {"measurement": "Abundance of Amylase RT-PCR Product (AML)", "setting": "embryonic stem cells; [1]", "value": "−"}, {"measurement": "Abundance of Insulin RT-PCR Product (INS)", "setting": "embryonic stem cells; [1]", "value": "−"}, {"measurement": "Formation of insulin-producing cells (correctly sized insulin-specific RT-PCR band)", "setting": "embryonic stem cells; stem cells treated with retinoic acid, aliquots at days 14, 17, 19 and 22, FIG. 1", "value": "insulin-producing cells resulted"}]}]}
